Measured values reported in patent publication US4309559A, “Sulphonamides useful as pesticides” (FBC Limited, priority 1977, dated 1982).
Where two headings read alike, the source gives them in different places.

Tests used:
[1] = test system: barley powdery mildew Erysiphe graminis; assay: Barley powdery mildew control on barley plants; assay type: in vivo; details: 2000 ppm; soil and leaves; 10 days; controls less than 5%
[2] = test system: potato blight Phytophthora infestans; assay type: in vivo; details: 5 days, controls less than 5%
Peas (Pisum sativum) [3] = assay: Soil incorporation (attaclay/sand dust), growth regulatory or herbicidal effects, peas; assay type: in vivo; details: Lathyrus oleraceus, 504 h, soil incorporation 130 ppm, 21 days, 0=no effect, 100=complete kill/suppression, read-out: growth regulatory or herbicidal effect score
Excerpt: (§1) The compounds listed below were each formulated as an attaclay/sand dust and incorporated into John Innes I potting compost at a rate equivalent to 26 parts per million weight/volume of active ingredient to soil and placed in anodised aluminium pans, 19 cm long×9.5 cm wide×5.0 cm deep. This rate is approximately equivalent to a soil surface application of 11.2 kg active ingredient/hectare cultivated to a depth of 5 cm. Seeds of the species listed below were sown in the treated soil, watered and placed in a controlled environment room (22° C.; 65-85% relative humidity; 14 hours per day artificial illumination at 13,000 lux) for 21 days. The plants were then visually assessed for any growth regulatory or herbicidal effects. All differences from an untreated control were scored on a scale from 0-100, where 0 signifies no effect and 100 signifies complete kill.
(§2) The compounds listed below were tested according to the procedure of Examples 56-60 but at 130 parts per million weight/volume of active ingredient to soil. This rate is approximately equivalent to a soil surface application of 56 kg active ingredient per hectare cultivated to a depth of 5 cm.
(§3) The product of Example 95 was tested according to the procedure of Examples 56-60 but at 130 and 26 parts per million weight/volume. The results were as follows:
(§4) N-(2-oxopropyl)-2'-chloro-6'-methyl-methanesulphonanilide, formulated as an attaclay/sand dust, was incorporated in John Innes I potting compost at a rate equivalent to 130 parts per million weight/volume of active ingredient to soil and placed in anodised aluminium pans, 19 cm long×9.5 cm wide×5.0 cm deep. These rates are approximately equivalent to a soil surface application of 56 kg active ingredient per hectare cultivated to a depth of 5 cm. Seeds of Peas, Mustard, Linseed, Maize, Oats and Ryegrass were sown in the treated soil, watered and placed in a controlled environment room (22° C.; 65-85% relative humidity; 14 hours artificial illumination at 13000 lux) for 21 days.
(§5) The plants were then visually assessed for any growth regulatory or herbicidal effects. All differences from an untreated control were scored on a scale from 0-100, where 0 signifies no effect and 100 signifies complete suppression.

Mustard (Sinapis alba) [4] = assay: Soil incorporation (attaclay/sand dust), growth regulatory or herbicidal effects, mustard; assay type: in vivo; details: 504 h, soil incorporation 130 ppm, 21 days, 0=no effect, 100=complete kill/suppression, read-out: growth regulatory or herbicidal effect score
Excerpt: as §1, §2, §3, §4, §5

[5] = test system: Linseed (Linum usitatissimum); assay: Soil incorporation (attaclay/sand dust), growth regulatory or herbicidal effects, linseed; assay type: in vivo; details: 504 h, soil incorporation 130 ppm, 21 days, 0=no effect, 100=complete kill/suppression, read-out: growth regulatory or herbicidal effect score
Excerpt: as §1, §2, §3, §4, §5

Maize (Zea mays) = assay: Soil incorporation (attaclay/sand dust), growth regulatory or herbicidal effects, maize; assay type: in vivo; details: 504 h, soil incorporation 130 ppm, 21 days, 0=no effect, 100=complete kill/suppression, read-out: growth regulatory or herbicidal effect score
Excerpt: as §1, §2, §3, §4, §5

Oats (Avena sativa) = assay: Soil incorporation (attaclay/sand dust), growth regulatory or herbicidal effects, oats; assay type: in vivo; details: 504 h, soil incorporation 130 ppm, 21 days, 0=no effect, 100=complete kill/suppression, read-out: growth regulatory or herbicidal effect score
Excerpt: as §1, §2, §3, §4, §5

[6] = test system: Ryegrass (Lolium perenne); assay: Soil incorporation (attaclay/sand dust), growth regulatory or herbicidal effects, ryegrass; assay type: in vivo; details: 504 h, soil incorporation 130 ppm, 21 days, 0=no effect, 100=complete kill/suppression, read-out: growth regulatory or herbicidal effect score
Excerpt: as §1, §2, §3, §4, §5

Peas (Pisum sativum) [7] = assay: Post-emergence foliar spray, herbicidal/growth regulant response, peas; assay type: in vivo; details: Lathyrus oleraceus, 168 h, foliar spray 11.2 kg/ha, 7 days, 0=no effect, 100=complete kill, read-out: herbicidal or growth regulant response index
Procedure: (§6) Seeds of the plant species listed below were sown in anodised aluminium pans, 19 cm long×9.5 cm wide×5 cm deep, containing John Innes I potting compost. They were then watered and placed in a controlled environment room (22° C.; 65-85% relative humidity; 14 hours per day artificial illumination at 13,000 lux). Fourteen days after sowing, the seedlings received a foliar spray of a compound listed below, formulated as a solution in 1:1 by volume aqueous acetone. The concentration of active ingredient and volume of application were adjusted so as to be equivalent to a rate of 11.2 kg/ha in 450 liters per hectare. After seven days growth in the controlled environment room, the plants were visually assessed for any herbicidal or growth regulant response. All differences from the untreated control were scored according to an index where 0=no effect and 100=complete kill.
(§7) The product of Example 95 was tested according to the procedure of Examples 49-55.

Mustard (Sinapis alba) [8] = assay: Post-emergence foliar spray, herbicidal/growth regulant response, mustard; assay type: in vivo; details: 168 h, foliar spray 11.2 kg/ha, 7 days, 0=no effect, 100=complete kill, read-out: herbicidal or growth regulant response index
Procedure: as §6, §7

[9] = test system: Linseed (Linum usitatissimum); assay: Post-emergence foliar spray, herbicidal/growth regulant response, linseed; assay type: in vivo; details: 168 h, foliar spray 11.2 kg/ha, 7 days, 0=no effect, 100=complete kill, read-out: herbicidal or growth regulant response index
Procedure: as §6, §7

[10] = test system: Ryegrass (Lolium perenne); assay: Post-emergence foliar spray, herbicidal/growth regulant response, ryegrass; assay type: in vivo; details: 168 h, foliar spray 11.2 kg/ha, 7 days, 0=no effect, 100=complete kill, read-out: herbicidal or growth regulant response index
Procedure: as §6, §7

[11] = test system: Sugarbeet (Beta vulgaris); assay: Post-emergence foliar spray, herbicidal/growth regulant response, sugarbeet; assay type: in vivo; details: 168 h, foliar spray 11.2 kg/ha, 7 days, 0=no effect, 100=complete kill, read-out: herbicidal or growth regulant response index
Procedure: as §6, §7

Oat (Avena sativa) = assay: Post-emergence foliar spray, herbicidal/growth regulant response, oat; assay type: in vivo; details: 168 h, foliar spray 11.2 kg/ha, 7 days, 0=no effect, 100=complete kill, read-out: herbicidal or growth regulant response index
Procedure: as §6, §7

Pythium ultimum [12] = assay: Fungal growth on the surface of soil infected with damping-off disease organism; assay type: in vivo; details: 6 days, 25° C., 0-8 scale
Procedure: (§8) A one week old maize meal/sand culture of the damping-off disease organism Pythium ultimum was thoroughly mixed by hand with clean sterile John Innes No. 1 potting compost in the ratio of 3 kg culture to 12 liters of soil. The infected soil was then left for approximately 18 hours before use. Each of the compounds listed below was ground together with a wetting agent, Tween 20 (1% of final volume), until a solution or fine suspension was produced which was then diluted with distilled water to give 160 ml of solution containing 1500, 500, 150 or 50 ppm active ingredient. 15 ml aliquots of this solution were added to 75 g portions of the soil infected with Pythium ultimum which were contained in small plastic cartons, 60 mm diameter×55 mm high. Fifteen cabbage seeds, variety Flower of Spring, were placed in a circular depression in the treated infected soil, recovered, and the whole sealed with a plastic cap. The cartons were then placed in a constant temperature room at 25° C.±1° C. Four replications per treatment were made with one additional treatment where seeds were sown in soil which was chemically treated only, i.e. there was no infection. This latter treatment was included to measure the direct effect of the chemical on the germination of the seed. After six days the cartons were removed from the controlled temperature chamber and assessed for degree of fungal growth on the soil surface and percentage of seedling emergence. The results of both these assessments are expressed in a 0-8 scale as follows:
(§9) One week old maize meal/sand culture of the damping-off disease organism Pythium ultimum was thoroughly mixed by hand with clean sterile John Innes No. 1 potting compost in the ratio of 3 kg culture to 12 liters of soil. This infected soil was then left for approximately 18 hours before use. The compounds listed in the Table below were each ground with the wetting agent Tween 20 (1% of final volume), until a solution or fine suspension was produced, which was then diluted with distilled water to give 160 ml of solution containing 1500 or 500 parts per million (ppm) active ingredient. 15 ml aliquots of this solution were added to 75 g portions of the soil infected with Pythium ultimum which were contained in small plastic cartons, 60 mm diameter×55 mm high.
(§10) Fifteen cabbage seeds, variety Flower of Spring, were placed in a circular depression in the treated infected soil, recovered, and the whole sealed with a plastic cap. The cartons were then placed in a constant temperature room at 25° C.±1° C. Four replications per treatment were made, with one additional treatment where seeds were sown in soil which was chemically treated only, i.e. there was no infection. This latter treatment was included to measure the direct effect of the chemical on the germination of the seed.
(§11) After six days, the cartons were removed from the controlled temperature chamber and assessed for degree of fungal growth on the soil surface and percentage of seedling emergence. The results of both these assessments are expressed in a 0-8 scale as follows:
(§12) N-(2-oxopropyl)-3',4'-dimethyl-methanesulphonanilide was tested at a dose rate of 300 ppm in the test described in Examples 233 and 234. It gave a mycelial control score of 0 and a germination score of 3 whereas the untreated samples gave a score of 0 for both.

Pythium ultimum [13] = assay: Cabbage seedling emergence in soil infected with Pythium ultimum; assay type: in vivo, Pythium ultimum (on cabbage, variety Flower of Spring); details: 6 days, 25° C., 0-8 scale
Procedure: as §8, §9, §10, §11, §12

Row | SMILES | % Control, potato blight ([2]; 2000 ppm) | pest or weed control at 130 µg/mL (Peas (Pisum sativum) [3]) | pest or weed control at 130 µg/mL (Mustard (Sinapis alba) [4]) | pest or weed control at 130 µg/mL [5] | plant injury at 130 µg/mL (Maize (Zea mays)) | plant injury at 130 µg/mL (Oats (Avena sativa)) | pest or weed control at 130 µg/mL [6] | pest or weed control at 11200 g/ha (Peas (Pisum sativum) [7]) | pest or weed control at 11200 g/ha (Mustard (Sinapis alba) [8]) | pest or weed control at 11200 g/ha [9] | pest or weed control at 11200 g/ha [10] | plant injury at 11200 g/ha [11] | plant injury at 11200 g/ha (Oat (Avena sativa)) | also measured
1 | Cc1ccc(N(CCCC#N)S(C)(=O)=O)cc1C [Example 148] | – | – | – | – | – | – | – | – | – | – | – | – | – | % Control, barley powdery mildew [1]: 89%
2 | CCCS(=O)(=O)N(CC#N)c1ccc(Cl)c(Cl)c1 [Example 132] | 76% | – | – | – | – | – | – | – | – | – | – | – | – | % Control, potato blight ([2]; 500 ppm): 59%
3 | Cc1cccc(C)c1N(CC#N)S(C)(=O)=O [Example 46] | 56% | 20% | 100% | 90% | 30% | 70% | 80% | – | – | – | – | – | – | –
4 | CCCCS(=O)(=O)N(c1c(C)cccc1C)C(C)C(=O)OCC (centres unmarked) [Example 27] | – | 20% | 100% | 100% | 100% | 100% | 100% | 5% | 100% | 70% | 20% | 90% | 30% | –
5 | CCc1ccccc1N(C(C)C(=O)N1CCOCC1)S(C)(=O)=O (centres unmarked) [Example 41] | 93% | – | – | – | – | – | – | – | – | – | – | – | – | –
6 | CCOC(=O)C(C)N(c1c(C)cccc1C)S(=O)(=O)CC (centres unmarked) [Example 26, N-(1-[ethoxycarbonyl]ethyl)-2',6'-dimethyl-ethanesulphonanilide] | – | 100% | 100% | 100% | 100% | 100% | 100% | 5% | 100% | 100% | 40% | 90% | 40% | Mycelial Control Score (Pythium ultimum [12]; 30 ppm): 0 (<20% inhibition); Mycelial Control Score (Pythium ultimum [12]; 100 ppm): 0 (<20% inhibition); Mycelial Control Score (Pythium ultimum [12]; 300 ppm): 0 (<20% inhibition); Germination Score (Pythium ultimum [13]; 30 ppm): 3 (45-54% inhibition); Germination Score (Pythium ultimum [13]; 100 ppm): 4 (55-64% inhibition); Germination Score (Pythium ultimum [13]; 300 ppm): 4 (55-64% inhibition)
